# Measurements as given in patent US20010003121A1, “Novel compounds” (AstraZeneca UK Limited, priority 1997, published 2001).
# Structures can show the parent of a compound that is named as a salt.
row,SMILES,melting point
1,"O=C(NCC12CC3CC(CC(C3)C1)C2)c1cc([N+](=O)[O-])ccc1Cl [Example 53, 2-Chloro-5-nitro-N-(tricyclo[3.3.1.1^3,7]dec-1-ylmethyl)-benzamide]",178 °C
2,"O=C(NCC12CC3CC(CC(C3)C1)C2)c1c(Cl)cccc1Cl [Example 4, 2,6-Dichloro-N-(tricyclo[3.3.1.1^3,7]dec-1-methyl)-benzamide]",246 to 247 °C
3,"O=C(NCC12CC3CC(CC(C3)C1)C2)c1cc(Cl)cc(Cl)c1 [Example 2, 3,5-Dichloro-N-(tricyclo[3.3.1.1^3,7]dec-1-methyl)-benzamide]",197 to 198 °C
4,"O=C(NCC12CC3CC(CC(C3)C1)C2)c1cccc(Cl)c1 [Example 20, 3-Chloro-N-(tricyclo[3.3.1.1^3,7]dec-1-methyl)-benzamide]",125 to 126 °C
5,CN(C)CCOc1ccccc1C(=O)NCC12CC3CC(CC(C3)C1)C2.Cl,181 to 183 °C
6,"O=C(NCC12CC3CC(CC(C3)C1)C2)c1cccnc1NCCN1CCCC1 (as salt: hydrochloride) [Example 33, 2-(2-(Pyrrolidin-1-yl)ethylamino)-N-(tricyclo[3.3.1.1^3,7]dec-1-ylmethyl)-3-pyridine carboxamide, dihydrochloride]",266 to 268 °C
7,"Cc1ccc(Sc2ncccc2C(=O)NCC23CC4CC(CC(C4)C2)C3)cc1 [Example 17, 2-(4-Methylphenylthio)-N-(tricyclo[3.3.1.1^3,7]dec-1-methyl)-3-pyridine carboxamide]",166 to 169 °C
8,"CN(C)c1ncccc1C(=O)NCC12CC3CC(CC(C3)C1)C2 (as salt: hydrochloride) [Example 35, 2-(Dimethylamino)-N-(tricyclo[3.3.1.1^3,7]dec-1-ylmethyl)-3-pyridine carboxamide, hydrochloride]",204 to 205 °C
9,"COc1ccc(OC)c(Sc2ncccc2C(=O)NCC23CC4CC(CC(C4)C2)C3)c1 [Example 37, 2-(2,5-Dimethoxyphenylthio)-N-(tricyclo[3.3.1.1^3,7]dec-1-ylmethyl)-3-pyridine carboxamide]",135 to 136 °C
10,"CN(C)CCSc1ccccc1C(=O)NCC12CC3CC(CC(C3)C1)C2 [Example 39, 2-(2-(N,N-Dimethylamino)ethylthio)-N-(tricyclo[3.3.1.1^3,7]dec-1-ylmethyl)-benzamide]",193 to 195 °C
11,"O=C(NCC12CC3CC(CC(C3)C1)C2)c1cccnc1N1CCCC1 (as salt: hydrochloride) [Example 36, 2-(Pyrrolidin-1-yl) N-(tricyclo[3.3.1.1^3,7]dec-1-ylmethyl)-3-pyridine carboxamide, dihydrochloride]",157 to 158 °C
12,"CNc1ncccc1C(=O)NCC12CC3CC(CC(C3)C1)C2 (as salt: hydrochloride) [Example 34, 2-(Methylamino)-N-(tricyclo[3.3.1.1^3,7]dec-1-ylmethyl)-3-pyridine carboxamide, dihydrochloride]",160 to 162 °C
13,O=C(NCC12CC3CC(CC(C3)C1)C2)c1ccc(Cl)cc1Cl,180 to 182 °C

# More lines, now with the values ahead:
row,melting point,SMILES
1,158 to 159 °C,"O=C(NCCC12CC3CC(CC(C3)C1)C2)c1cccc(Cl)c1Cl [Example 73, 2,3-Dichloro-N-(2-[tricyclo(3.3.1.1^3,7]dec-1-yl]ethyl)-benzamide]"
2,173 to 175 °C,"COc1cc(OC)c(C)c(C(=O)NCC23CC4CC(CC(C4)C2)C3)c1 [Example 67, 3,5-Dimethoxy-2-methyl-N-(tricyclo[3.3.1.1^3,7]dec-1-ylmethyl)-benzamide]"
3,153 °C,"Cc1ccc(C)c(C(=O)NCCC23CC4CC(CC(C4)C2)C3)c1 [Example 75, 2,5-Dimethyl-N-(2-[tricyclo[3.3.1.1^3,7]dec-1-yl]ethyl)-benzamide]"
4,142 to 143 °C (dec.),"O=C(NCC12CC3CC(CC(C3)C1)C2)c1cc(NCCN2CCCCC2)ccc1Cl (as salt: hydrochloride) [Example 70, 2-Chloro-5-(2-(piperidin-1-yl)ethylamino)-N-(tricvclo(3.3.1.1^3,7]dec-1-ylmethyl)-benzamide, hydrochloride]"
5,144 to 147 °C,"CN(C)CCOc1ccc(Cl)c(C(=O)NCC23CC4CC(CC(C4)C2)C3)c1 [Example 60, 2-Chloro-5-(N,N-dimethylamino)ethyloxy-N-(tricyclo[3.3.1.1^3,7]dec-1-ylmethyl)-benzamide]"
6,86 to 87 °C,"O=C(NCC12CC3CC(CC(C3)C1)C2)c1cccc(NCCNCCc2c[nH]cn2)c1Cl [Example 77, 2-Chloro-3-(N-(2-[imidazoyl-4-yl]ethyl)-2-aminoethyl)amino-N-(tricyclo[3.3.1.1^3,7]dec-1-ylmethyl)-benzamide]"
7,161 to 162 °C,"O=C(NCC12CC3CC(CC(C3)C1)C2)c1cc(Cl)ccc1Cl [Example 61, 2,5-Dichloro-N-(tricyclo[3.3.1.1^3,7]dec-1-ylmethyl)-benzamide]"
8,234 to 235 °C,O=C(NCC12CC3CC(CC(C3)C1)C2)c1cccc(O)c1Cl [Example 59]
